Measured values reported in patent EP1272854B1, “METHOD FOR DETECTING A HORMONE DISRUPTING ACTIVITY OF ENVIRONMENTAL POLLUTANTS” (Meulenberg, Petronella Mariette Maria, priority 2000, dated 2001).

What was measured:
[1] = system: SHBG (Sex Hormone Binding Globulin) from serum of pregnant volunteers; assay: SHBG assay: competitive displacement of tritiated oestradiol from antibody-captured SHBG on microtiter plate; set-up: species or system human; details: for displacement of oestradiol / affinity to SHBG (in words): discussion of the SHBG assay results; for Activity (score for the displacement of tritiated oestradiol): displacement of 3H-oestradiol from SHBG, related to testosterone standard curve
From the text: Sub figure 1a: HPAA = Hypothalamus-Pituitary-Adrenal-Axis; CRH = Corticotrophin Releasing Hormone; ACTH = Adrenocorticotrophic Hormone; Adrenal = adrenal gland. Sub figure 1b: HPTeA = Hypothalamus-Pituitary-Testis-Axis; LHRH = Luteinizing Hormone Releasing Hormone; LH = Luteinizing Hormone. […] The values are the averages of 11 measurements. […] Plotted out is the bound fraction as a percentage of the total quantity of added ^3H-E2 against the concentration of the test compound.
The SHBG assay was developed for detecting a possible oestrogenic activity of xenobiotic substances. As main component use was made of SHBG from serum of pregnant volunteers in the third trimester of pregnancy. Additionally use was made of commercially available polyclonal anti-SHBG antibody (DAKO) to isolate SHBG from serum on a microtiter plate. […] As standard testosterone (Sigma-Aldrich B.V., Zwijndrecht, the Netherlands) was used in a concentration series.
All compounds to be analyzed are related to the testosterone standard curve. For the analysis of an oestrogenic effect various compounds were tested in the SHBG assay, including endogenous steroids, pharmaceutical substances, pesticides and industrial waste products (alkyl phenols). […]

SHBG (post partum serum) = details: competition with 3H-5-alpha-DHT; cited from earlier work
SHBG = details: cited from earlier work

C#CC1(O)CC[C@H]2[C@@H]3CCC4=CC(=O)CC[C@@H]4[C@H]3CC[C@@]21CC (mixture of isomers) [Norgestrel, reference compound]
displacement of oestradiol / affinity to SHBG (in words) [1]: high affinity
Activity (score for the displacement of tritiated oestradiol) [1]: + + (strong displacement)

O=C(O)COc1ccc(Cl)cc1Cl [2.4-D]
Activity (score for the displacement of tritiated oestradiol) [1]: + (moderate displacement)

C[C@H]1C[C@@H]2[C@H]([C@@H](O)C[C@@]3(C)[C@H]2CC[C@]3(O)C(=O)CO)[C@@]2(C)C=CC(=O)C=C12 [6-alpha-methylprednisolone, reference compound]
Activity (score for the displacement of tritiated oestradiol) [1]: + (moderate displacement)

CNC(=O)O/N=C/C(C)(C)SC [Aldicarb]
displacement of oestradiol / affinity to SHBG (in words) [1]: ambiguous result
Activity (score for the displacement of tritiated oestradiol) [1]: +/-

C[C@]12CC[C@@H](O)C[C@@H]1CC[C@@H]1[C@@H]2CC[C@]2(C)C(=O)CC[C@@H]12 [Andosterone, reference compound]
Activity (score for the displacement of tritiated oestradiol) [1]: + (moderate displacement)

CCNc1nc(Cl)nc(NC(C)C)n1 [Atrazine]
displacement of oestradiol / affinity to SHBG (in words) [1]: no activity at all
Activity (score for the displacement of tritiated oestradiol) [1]: - (no displacement)
binding to SHBG (SHBG (post partum serum)): not found

CC(C)(c1ccc(O)cc1)c1ccc(O)cc1 [Bisphenol-A]
displacement of oestradiol / affinity to SHBG (in words) [1]: remarkably strong effect
Activity (score for the displacement of tritiated oestradiol) [1]: + + (strong displacement)

CC/C(=C(/CC)c1ccc(O)cc1)c1ccc(O)cc1 [DES, reference compound]
displacement of oestradiol / affinity to SHBG (in words) [1]: high affinity
Activity (score for the displacement of tritiated oestradiol) [1]: + + (strong displacement)

C[C@]12CC[C@H](O)CC1=CC[C@@H]1[C@@H]2CC[C@]2(C)C(=O)CC[C@@H]12 [Dehydro-iso-andosterone, reference compound]
Activity (score for the displacement of tritiated oestradiol) [1]: + (moderate displacement)

CN(C)S(=O)(=O)N(SC(F)(Cl)Cl)c1ccccc1 [Dichlofluanide]
Activity (score for the displacement of tritiated oestradiol) [1]: + (moderate displacement)

O=C(O)CNCP(=O)(O)O [Glyphosate]
displacement of oestradiol / affinity to SHBG (in words) [1]: ambiguous result
Activity (score for the displacement of tritiated oestradiol) [1]: +/-

CCCCC(O)(Cn1cncn1)c1ccc(Cl)cc1Cl (centres unmarked) [Hexaconazole]
displacement of oestradiol / affinity to SHBG (in words) [1]: ambiguous result
Activity (score for the displacement of tritiated oestradiol) [1]: +/-

CCOC(=O)CC(SP(=S)(OC)OC)C(=O)OCC (centres unmarked) [Malathion]
Activity (score for the displacement of tritiated oestradiol) [1]: + (moderate displacement)

C[C@]12CC[C@@H]3c4ccc(O)cc4CC[C@H]3[C@@H]1CC[C@@H]2O [Oestradiol]
affinity for SHBG (SHBG; association constant, see Dunn et al. 1981): 7e-10 M⁻¹

CC1(C)C(C=C(Cl)Cl)C1C(=O)OCc1cccc(Oc2ccccc2)c1 (centres unmarked) [Permethrin]
displacement of oestradiol / affinity to SHBG (in words) [1]: clear displacement
Activity (score for the displacement of tritiated oestradiol) [1]: + + (strong displacement)

CCNc1nc(Cl)nc(NCC)n1 [Simazine]
displacement of oestradiol / affinity to SHBG (in words) [1]: ambiguous result
Activity (score for the displacement of tritiated oestradiol) [1]: + /-

CC(C)(C)C(O)(CCc1ccc(Cl)cc1)Cn1cncn1 (centres unmarked) [Tebuconazole]
displacement of oestradiol / affinity to SHBG (in words) [1]: ambiguous result
Activity (score for the displacement of tritiated oestradiol) [1]: +/-

C[C@]12CC[C@H]3[C@@H](CCC4=CC(=O)CC[C@@]43C)[C@@H]1CC[C@@H]2O [Testosterone]
Activity (score for the displacement of tritiated oestradiol) [1]: + + (strong displacement)
Kd (SHBG; see Dunn et al. 1981, read-out: affinity for SHBG (converted)): 62.5 nM
affinity to SHBG relative to oestradiol (SHBG; testosterone versus oestradiol): approximately 3 times

C=CC1(C)OC(=O)N(c2cc(Cl)cc(Cl)c2)C1=O (centres unmarked) [Vinclozolin]
Activity (score for the displacement of tritiated oestradiol) [1]: + (moderate displacement)

ClC1=C(Cl)[C@]2(Cl)[C@@H]3[C@@H]4C[C@@H]([C@H]5O[C@@H]45)[C@@H]3[C@@]1(Cl)C2(Cl)Cl [dieldrin]
binding to SHBG (SHBG (post partum serum)): not found

COc1ccc(C(c2ccc(OC)cc2)C(Cl)(Cl)Cl)cc1 [methoxychlor]
binding to SHBG (SHBG (post partum serum)): not found

Clc1ccc(C(c2ccccc2Cl)C(Cl)(Cl)Cl)cc1 (centres unmarked) [o,p'-DDT]
binding to SHBG (SHBG (post partum serum)): showed binding

ClC(Cl)=C(c1ccc(Cl)cc1)c1ccc(Cl)cc1 [p,p'-DDE]
binding to SHBG (SHBG (post partum serum)): not found

Clc1ccc(C(c2ccc(Cl)cc2)C(Cl)(Cl)Cl)cc1 [p,p'-DDT]
binding to SHBG (SHBG (post partum serum)): not found

Oc1c(Cl)c(Cl)c(Cl)c(Cl)c1Cl [pentachlorophenol]
binding to SHBG (SHBG (post partum serum)): showed binding

Nonylphenol
displacement of oestradiol / affinity to SHBG (in words) [1]: remarkably strong effect
Activity (score for the displacement of tritiated oestradiol) [1]: + + (strong displacement)
binding to SHBG (SHBG (post partum serum)): showed binding
